From patent US20250179057A1, “MEK IMMUNE ONCOLOGY INHIBITORS AND THERAPEUTIC USES THEREOF” (Immuneering Corporation, priority 2022, published 2025) come the findings set out here.

Series [1] in a line: Hepatocyte stability, human. To be noted: 0.5 million cells/ml; for half-life at 2 μM: human hepatocytes, 120 min; for CLint scaled at 2 μM: human, hepatocytes. Format: in vitro ADME. On the procedure: (§1) In this study, human, cynomolgus monkey, beagle dog, wistar hannover rat, and balb/c mouse hepatocyle stability was determined.
A short description of series [2]: Hepatocyte stability, cynomolgus monkey. The series is classed as in vitro ADME. Conditions: 0.5 million cells/ml; for half-life at 2 μM: cynomolgus monkey hepatocytes; for CLint scaled at 2 μM: cynomolgus monkey, hepatocytes. On the procedure: as §1
A further series deals with T1, CYP2B6 (Homo sapiens, UniProt P20813).
T1 sequence (P20813 1-491): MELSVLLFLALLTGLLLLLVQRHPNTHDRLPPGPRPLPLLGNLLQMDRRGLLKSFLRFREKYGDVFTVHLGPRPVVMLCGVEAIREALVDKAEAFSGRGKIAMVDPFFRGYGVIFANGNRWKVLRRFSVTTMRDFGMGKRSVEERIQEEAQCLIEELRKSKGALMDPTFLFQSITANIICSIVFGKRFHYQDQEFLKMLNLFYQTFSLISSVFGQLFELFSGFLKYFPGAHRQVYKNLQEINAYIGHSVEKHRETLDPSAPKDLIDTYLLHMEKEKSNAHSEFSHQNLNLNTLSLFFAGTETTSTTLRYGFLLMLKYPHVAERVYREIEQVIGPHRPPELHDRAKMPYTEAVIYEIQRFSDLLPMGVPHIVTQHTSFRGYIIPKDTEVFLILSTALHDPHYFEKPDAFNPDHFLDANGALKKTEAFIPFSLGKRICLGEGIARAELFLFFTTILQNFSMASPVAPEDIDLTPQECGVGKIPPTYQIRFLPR
Kind of series: in vitro. Conditions: microsomes, pH 7.4.

For the next series, the target named is CYP2C19 (Homo sapiens, UniProt P33261). Nature of the series: in vitro. Conditions: microsomes, pH 7.4.
A further series concerns the target CYP2D6 (Homo sapiens, UniProt P10635). Kind of series: in vitro. Conditions: microsomes, pH 7.4.
A further series concerns the target CYP3A4 (Homo sapiens, UniProt P08684). Kind of series: in vitro. Conditions: microsomes, pH 7.4.
Series [3] can be described thus: Caco-2 bidirectional permeability (absorption & efflux). To be noted: human.
Series [4] can be described thus: Kinetic solubility (PBS pH 7.4; 4 hr). To be noted: PBS buffer, pH 7.4, aqueous buffer, kinetic from dmso stock; free base (Table 19); read-out: Kinetic Solubility. Format: physicochemical. In a few lines:
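Compound shaken in PBS pH 7.4 for 4 h at room temperature, then centrifuged. Supernatant, diluted with DMSO, quantified by LC-UV peak area against DMSO calibration curves.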

Where [5] appears, read: read-out: CLint (L/hr/kg) (converted).

Each structure is given as a SMILES string. Where a name gives a salt, the structure may show the parent alone.

Sequence of CYP3A4 (P08684 whole entry): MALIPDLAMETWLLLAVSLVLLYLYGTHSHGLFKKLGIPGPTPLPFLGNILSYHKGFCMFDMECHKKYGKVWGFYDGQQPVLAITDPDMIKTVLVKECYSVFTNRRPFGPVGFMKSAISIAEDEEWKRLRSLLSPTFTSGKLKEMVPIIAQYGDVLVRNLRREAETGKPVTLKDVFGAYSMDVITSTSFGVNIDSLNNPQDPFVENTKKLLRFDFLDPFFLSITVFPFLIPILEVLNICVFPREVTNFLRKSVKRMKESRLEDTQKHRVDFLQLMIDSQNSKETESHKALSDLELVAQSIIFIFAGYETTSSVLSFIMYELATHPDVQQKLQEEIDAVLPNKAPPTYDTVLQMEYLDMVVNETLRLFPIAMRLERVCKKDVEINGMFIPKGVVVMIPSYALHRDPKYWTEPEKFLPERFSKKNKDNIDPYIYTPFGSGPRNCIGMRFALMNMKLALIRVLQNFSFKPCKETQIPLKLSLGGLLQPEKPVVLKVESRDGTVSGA
Sequence of CYP2D6 (P10635 whole entry): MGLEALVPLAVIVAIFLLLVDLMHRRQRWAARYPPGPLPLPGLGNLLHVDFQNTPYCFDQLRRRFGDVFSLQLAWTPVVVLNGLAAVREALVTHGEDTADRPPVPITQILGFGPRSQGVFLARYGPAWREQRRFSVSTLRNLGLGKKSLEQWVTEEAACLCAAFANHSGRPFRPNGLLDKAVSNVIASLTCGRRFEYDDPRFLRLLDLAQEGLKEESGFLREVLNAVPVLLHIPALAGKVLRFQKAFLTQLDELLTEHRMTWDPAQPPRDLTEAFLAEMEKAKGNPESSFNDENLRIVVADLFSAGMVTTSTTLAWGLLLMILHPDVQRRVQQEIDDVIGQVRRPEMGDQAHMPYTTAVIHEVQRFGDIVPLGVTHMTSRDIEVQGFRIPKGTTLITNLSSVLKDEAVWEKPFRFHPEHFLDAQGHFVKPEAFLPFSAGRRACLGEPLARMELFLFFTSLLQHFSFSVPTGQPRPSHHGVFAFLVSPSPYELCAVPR
Sequence of CYP2C19 (P33261 whole entry): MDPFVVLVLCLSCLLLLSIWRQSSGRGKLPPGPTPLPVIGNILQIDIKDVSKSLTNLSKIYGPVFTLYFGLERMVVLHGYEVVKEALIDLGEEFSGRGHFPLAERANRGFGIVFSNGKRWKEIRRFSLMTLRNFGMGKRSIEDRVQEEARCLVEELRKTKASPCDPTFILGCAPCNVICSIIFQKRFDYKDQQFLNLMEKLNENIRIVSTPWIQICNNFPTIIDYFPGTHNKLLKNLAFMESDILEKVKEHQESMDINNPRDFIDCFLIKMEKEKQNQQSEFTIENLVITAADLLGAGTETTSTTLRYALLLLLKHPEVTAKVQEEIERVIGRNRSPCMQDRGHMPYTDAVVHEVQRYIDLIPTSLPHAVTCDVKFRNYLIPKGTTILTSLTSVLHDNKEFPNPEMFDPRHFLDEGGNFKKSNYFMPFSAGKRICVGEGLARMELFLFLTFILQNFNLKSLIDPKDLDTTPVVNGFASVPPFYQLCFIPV

For the molecule `CNS(=O)(=O)Nc1cccc(Cc2c(CN3CCNCC3)c3ccc(OC(=O)N(C)C)cc3oc2=O)c1Cl` [Compound 246, 3-(2-chloro-3-((N-methylsulfamoyl)amino)benzyl)-2-oxo-4-(piperazin-1-ylmethyl)-2H-chromen-7-yl dimethylcarbamate hydrochloride], the half-life – broadly, the time needed for the level to fall by half in the phase considered – at 2 μM in series [1] was 1720 min; in series [2], 405 min. Further, the CLint scaled at 2 μM was 0.13 L/h/kg in series [1] (setting [5]), 0.13 L/h/kg in series [1] (read-out: CLint (mL/min/kg)), 0.832 L/h/kg in series [2] (setting [5]) and 0.834 L/h/kg in series [2] (read-out: CLint (mL/min/kg)). Further, the inhibition (in general, the percentage by which the read-out fell short of the control) at 30 min, 10 µM on CYP2B6 was 29.7%; against CYP2C19, 22%; on CYP2D6 it was 5.1%; at CYP3A4, 16.2%. Also, in series [3], the Papp A→B (in general, how fast a substance crosses the layer from the apical side) at 2 h, 10 μM is 4.16 ×10⁻⁶ cm/s. Besides, the Papp B→A (in general, the apparent permeability from the basolateral to the apical side of a cell layer) at 2 h, 10 μM in series [3] was 6.99 ×10⁻⁶ cm/s. In series [3], the efflux ratio (in general, the permeability from basolateral to apical divided by that in the opposite direction, in the common usage) at 2 h, 10 μM was 1.68.
On to `CNS(=O)(=O)Nc1cccc(Cc2c(CN3CCNCC3)c3cc(Cl)c(OC(=O)N(C)C)cc3oc2=O)c1Cl` [Compound 256, 6-chloro-3-(2-chloro-3-((N-methylsulfamoyl)amino)benzyl)-2-oxo-4-(piperazin-1-ylmethyl)-2H-chromen-7-yl dimethylcarbamate hydrochloride], for which the kinetic solubility – broadly, the concentration staying in solution when a stock, usually in DMSO, is diluted into the medium – at 4 h in series [4] is over 80 µM. Also, the half-life at 2 μM in series [1] was determined as 927 min; in series [2], 135 min. The CLint scaled at 2 μM in series [1] (setting [5]) is 0.242 L/h/kg; in series [1] (read-out: CLint (mL/min/kg)), 0.242 L/h/kg; in series [2] (setting [5]) it was 2.5 L/h/kg; in series [2] (read-out: CLint (mL/min/kg)), 2.5 L/h/kg. In addition, the inhibition at 30 min, 10 µM against CYP2B6 amounted to 1.9%; against CYP2C19, 40.8%; against CYP2D6 it was 7.1%; against CYP3A4, 61.8%. The same molecule showed a Papp A→B at 2 h, 10 μM in series [3] of 3.59 ×10⁻⁶ cm/s. This molecule also had a Papp B→A at 2 h, 10 μM in series [3] of 13.4 ×10⁻⁶ cm/s. The efflux ratio at 2 h, 10 μM in series [3] stood at 3.73.
As for `CCS(=O)(=O)Nc1cccc(Cc2c(CN3CCNCC3)c3cc(Cl)c(OC(=O)N(C)C)cc3oc2=O)c1Cl` [Compound 257, 6-chloro-3-(2-chloro-3-(ethylsulfonamido)benzyl)-2-oxo-4-(piperazin-1-ylmethyl)-2H-chromen-7-yl dimethylcarbamate hydrochloride], in series [4], the solubility (kinetic) at 4 h was over 80 µM. For the same molecule, the half-life at 2 μM worked out at 719 min in series [1] and 179 min in series [2]. The CLint scaled at 2 μM in series [1] (setting [5]) is 0.312 L/h/kg; in series [1] (read-out: CLint (mL/min/kg)) it was 0.313 L/h/kg; in series [2] (setting [5]), 1.88 L/h/kg; in series [2] (read-out: CLint (mL/min/kg)) it was 1.88 L/h/kg. The inhibition at 30 min, 10 µM against CYP2B6 was determined as 13.7%; against CYP2C19, 47.5%; against CYP2D6, 10.1%; against CYP3A4 it was 67.4%. The Papp A→B at 2 h, 10 μM in series [3] came out at 4.08 ×10⁻⁶ cm/s. The molecule also yielded a Papp B→A at 2 h, 10 μM in series [3] of 22.1 ×10⁻⁶ cm/s. The efflux ratio at 2 h, 10 μM in series [3] amounted to 5.41.
